Test results: patent publication US11529319B2, “Methods and compositions for treating neurological conditions” (priority 2017, dated 2022)
“Also recorded” adds a separate entry of the source.

Tested on: MeCP2 knockout (KO) mouse model of Rett syndrome
Assay: Rotarod test
Format: in vivo
Conditions: MeCP2 KO mice
Protocol: Mice were placed on the stationary cylinder and the cylinder then slowly accelerated to 10 revolutions/min. The total time at 10 rpm before a fall from the cylinder was recorded.

CCC12CC3(N)CC(CC)(C1)CC(O[N+](=O)[O-])(C3)C2 [NitroSynapsin]
rotarod performance (time at 10 rpm before a fall): improved motor behavior; also recorded: significantly improved motor performance
